SMILES strings stand for the structures.

Holding throughout (assay): ligand-induced self-cleavage, PAGE, SYBR Gold
For test [1], the system named is II-R1-7 (DNA, aptamer) CATGACCACTAGGAGCATCTTTGGCGATCCTCGTCAGATGGTGAAGCAGACGTTTGGCTAGGGGAATAAATCTTTGGGCACCTAGTGGTCATG
The following applies: 100 mM NaCl, 40 mM MgCl2, 1 mM ZnCl2; 50 mM HEPES, pH 7.05; apparent, half-maximal cleavage.

Test [2] deals with II-R1-3 (DNA, aptamer) CATGACCACTAGGAGCATCTTTGGCGAGAAGACTCTGGATTCGGGGACCAGTTGCTGCTAGGGGAATAAATCTTTGGGCACCTAGTGGTCATG
The following applies: 100 mM NaCl, 40 mM MgCl2, 1 mM ZnCl2, 50 mM HEPES, pH 7.05; for KD: apparent, half-maximal cleavage, 0.1-100 μM ligand; for ligand-induced cleavage: 30 min.

Test [3] concerns II-R1-1 (DNA, aptamer) CATGACCACTAGGAGCATCTTTGGCGAGATCGGGAGAATCGGTGGCATTGGTGTCTCCTAGGGGAATAAATCTTTGGGCACCTAGTGGTCATG
Particulars: 100 mM NaCl, 40 mM MgCl2, 1 mM ZnCl2; 50 mM HEPES, pH 7.05; apparent, half-maximal cleavage.

Turning to `N[C@@H](Cc1ccc(O)cc1)C(=O)O`, the values for the KD in test [1], in test [2] and in test [3] were 118.9 ± 11.7 µM, 6.8 ± 0.7 µM and 71.6 ± 9.8 µM, respectively.

With `N[C@H](Cc1ccccc1)C(=O)O`, in test [2] (tested at 100 μM, no cleavage induced), the ligand-induced cleavage result is recorded as “no”.

On to `NC(Cc1ccc(F)cc1)C(=O)O` (racemic), for which the ligand-induced cleavage entry in test [2] (100 μM, fraction cleaved 0.235 (L-Phe 0.325)) is reported as “yes”.

Consider `N[C@@H](Cc1ccccc1)C(=O)O`, for which the results for the KD in test [1], in test [2] and in test [3] were 19.3 ± 2.4 µM, 4.8 ± 1.4 µM and 20.3 ± 1.6 µM, respectively.

For the origin of these results see article PMC10287898 (2023).
